Experimental data published in PubChem BioAssay AID256 (DTP/NCI, 2004).
Several values for one entry are separate records, joined by “and”; a condition that tells them apart may be missing. Equal values may be shown once. Toxic doses and inconclusive results are not listed.

Test system: CD2F1 mice, L1210 leukemia ip, survival T/C
Assay: NCI In Vivo Anticancer Drug Screen. Data for tumor model L1210 Leukemia (intraperitoneal) in CD2F1 (CDF1) mice
Details: higher = longer survival
Procedure, shortened: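 Vehicle-treated tumor-bearing mice served as controls (C) for compound-treated mice (T). Reported figure is T divided by C.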

[1] = endpoint: median survival time, dose: 25.0 mg/kg/injection, schedule: Q01DX009 (ip), vehicle: saline with Tween-80
[2] = endpoint: median survival time, dose: 50.0 mg/kg/injection, schedule: Q01DX009 (ip), vehicle: saline with Tween-80
[3] = endpoint: mean survival time, dose: 100.0 mg/kg/injection, schedule: Q01DX001 (ip), vehicle: saline with Tween-80
[4] = endpoint: mean survival time, dose: 200.0 mg/kg/injection, schedule: Q01DX001 (ip), vehicle: saline with Tween-80
[5] = endpoint: mean survival time, dose: 400.0 mg/kg/injection, schedule: Q01DX001 (ip), vehicle: saline with Tween-80
[6] = endpoint: mean survival time, dose: 100.0 mg/kg/injection, schedule: Q04DX002 (ip), vehicle: saline with Tween-80
[7] = endpoint: mean survival time, dose: 200.0 mg/kg/injection, schedule: Q04DX002 (ip), vehicle: saline with Tween-80
[8] = endpoint: mean survival time, dose: 400.0 mg/kg/injection, schedule: Q04DX002 (ip), vehicle: saline with Tween-80
[9] = endpoint: mean survival time, dose: 25.0 mg/kg/injection, schedule: Q01DX009 (ip), vehicle: saline with Tween-80
[10] = endpoint: mean survival time, dose: 50.0 mg/kg/injection, schedule: Q01DX009 (ip), vehicle: saline with Tween-80
[11] = endpoint: mean survival time, dose: 100.0 mg/kg/injection, schedule: Q04DX003 (ip), vehicle: saline with Tween-80
[12] = endpoint: mean survival time, dose: 100.0 mg/kg/injection, schedule: Q01DX009 (ip), vehicle: saline with Tween-80
[13] = endpoint: mean survival time, dose: 200.0 mg/kg/injection, schedule: Q01DX009 (ip), vehicle: saline with Tween-80
[14] = endpoint: mean survival time, dose: 400.0 mg/kg/injection, schedule: Q01DX009 (ip), vehicle: saline with Tween-80

c1cc(NC2CCCCC2)ccc1CN1CCOCC1
T/C (endpoint: mean survival time, dose: 12.5 mg/kg/injection, schedule: Q01DX009 (ip), vehicle: saline + Tween-80 + alcohol): 99 % of control and 100 % of control | T/C (endpoint: mean survival time, dose: 25.0 mg/kg/injection, schedule: Q01DX009 (ip), vehicle: saline + Tween-80 + alcohol): 99 % of control and 102 % of control | T/C (endpoint: mean survival time, dose: 50.0 mg/kg/injection, schedule: Q01DX009 (ip), vehicle: saline + Tween-80 + alcohol): 97 % of control and 100 % of control | T/C (endpoint: mean survival time, dose: 100.0 mg/kg/injection, schedule: Q01DX009 (ip), vehicle: saline + Tween-80 + alcohol): 99 % of control and 103 % of control | T/C (endpoint: mean survival time, dose: 200.0 mg/kg/injection, schedule: Q01DX009 (ip), vehicle: saline + Tween-80 + alcohol): 94 % of control and 100 % of control | T/C (endpoint: mean survival time, dose: 400.0 mg/kg/injection, schedule: Q01DX009 (ip), vehicle: saline + Tween-80 + alcohol): 97 % of control and 100 % of control

C=COC(=O)C(Cc1ccccc1)NC(=O)OCc1ccccc1 (centres undefined)
T/C [1]: 96 % of control | T/C [2]: 96 % of control | T/C (endpoint: median survival time, dose: 100.0 mg/kg/injection, schedule: Q01DX009 (ip), vehicle: saline with Tween-80): 93 % of control | T/C (endpoint: median survival time, dose: 200.0 mg/kg/injection, schedule: Q01DX009 (ip), vehicle: saline with Tween-80): 93 % of control | T/C (endpoint: median survival time, dose: 400.0 mg/kg/injection, schedule: Q01DX009 (ip), vehicle: saline with Tween-80): 101 % of control

O=C1C=C(O)c2cc(Br)ccc2C1=O
T/C (endpoint: mean survival time, dose: 100.0 mg/kg/injection, schedule: Q01DX001 (ip), vehicle: saline): 102 % of control | T/C (endpoint: mean survival time, dose: 200.0 mg/kg/injection, schedule: Q01DX001 (ip), vehicle: saline): 98 % of control | T/C (endpoint: mean survival time, dose: 400.0 mg/kg/injection, schedule: Q01DX001 (ip), vehicle: saline): 98 % of control

OCC(O)C(O)C(O)C(O)/C=N\Nc1ccccc1 (centres undefined)
T/C [3]: 100 % of control | T/C [4]: 100 % of control | T/C [5]: 95 % of control

CC(N(N=O)c1cccc(Cl)c1)S(=O)(=O)O (centres undefined)
T/C [6]: 101 % of control | T/C [7]: 97 % of control | T/C [8]: 86 % of control

Cc1cc(Br)c2ccccc2c1N(CC(=O)O)S(=O)(=O)c1ccccc1
T/C (endpoint: mean survival time, dose: 12.5 mg/kg/injection, schedule: Q01DX009 (ip), vehicle: saline with Tween-80): 103 % of control | T/C [9]: 103 % of control | T/C [10]: 94 % of control

N=c1ccn2c(n1)OC1C(O)C(CO)OC12 (centres undefined)
T/C (endpoint: mean survival time, dose: 37.5 mg/kg/injection, schedule: Q01DX005 (ip), vehicle: saline): 151 % of control | T/C (endpoint: mean survival time, dose: 53.0 mg/kg/injection, schedule: Q01DX009 (ip), vehicle: saline): 246 % of control | T/C (endpoint: mean survival time, dose: 75.0 mg/kg/injection, schedule: Q01DX005 (ip), vehicle: saline): 152 % of control and 173 % of control | T/C (endpoint: mean survival time, dose: 79.0 mg/kg/injection, schedule: Q01DX009 (ip), vehicle: saline): 247 % of control | T/C [6]: 151 % of control | T/C (endpoint: mean survival time, dose: 119.0 mg/kg/injection, schedule: Q01DX009 (ip), vehicle: saline): 331 % of control | T/C (endpoint: mean survival time, dose: 150.0 mg/kg/injection, schedule: Q01DX005 (ip), vehicle: saline): 160 % of control and 171 % of control | T/C (endpoint: mean survival time, dose: 178.0 mg/kg/injection, schedule: Q01DX009 (ip), vehicle: saline): 341 % of control | T/C [7]: 158 % of control | T/C (endpoint: mean survival time, dose: 300.0 mg/kg/injection, schedule: Q01DX005 (ip), vehicle: saline): 205 % of control and 221 % of control | T/C [8]: 205 % of control | T/C (endpoint: mean survival time, dose: 600.0 mg/kg/injection, schedule: Q01DX005 (ip), vehicle: saline): 271 % of control and 274 % of control | T/C (endpoint: median survival time, dose: 200.0 mg/kg/injection, schedule: Q01DX009 (ip), vehicle: water): 375 % of control | T/C (endpoint: median survival time, dose: 500.0 mg/kg/injection, schedule: Q01DX009 (ip), vehicle: water): 93 % of control | T/C (endpoint: median survival time, dose: 600.0 mg/kg/injection, schedule: Q01DX009 (ip), vehicle: water): 105 % of control

CCc1cccc(CC)c1NC(N)=S
T/C (endpoint: mean survival time, dose: 25.0 mg/kg/injection, schedule: Q04DX002 (ip), vehicle: saline with Tween-80): 108 % of control | T/C (endpoint: mean survival time, dose: 50.0 mg/kg/injection, schedule: Q04DX002 (ip), vehicle: saline with Tween-80): 97 % of control | T/C [6]: 101 % of control

NNc1nc(=O)[nH]nc1Sc1ccccc1
T/C (endpoint: mean survival time, dose: 75.0 mg/kg/injection, schedule: Q01DX001 (ip), vehicle: saline): 96 % of control | T/C (endpoint: mean survival time, dose: 150.0 mg/kg/injection, schedule: Q01DX001 (ip), vehicle: saline): 101 % of control | T/C (endpoint: mean survival time, dose: 300.0 mg/kg/injection, schedule: Q01DX001 (ip), vehicle: saline): 97 % of control

OCC1OC(n2cnc3c2[nH]c(=S)n2ccnc32)C(O)C1O (centres undefined)
T/C (endpoint: mean survival time, dose: 12.5 mg/kg/injection, schedule: Q01DX005 (ip), vehicle: water): 96 % of control | T/C (endpoint: mean survival time, dose: 25.0 mg/kg/injection, schedule: Q01DX005 (ip), vehicle: water): 101 % of control | T/C (endpoint: mean survival time, dose: 50.0 mg/kg/injection, schedule: Q01DX005 (ip), vehicle: water): 96 % of control | T/C (endpoint: mean survival time, dose: 100.0 mg/kg/injection, schedule: Q01DX005 (ip), vehicle: water): 101 % of control | T/C (endpoint: mean survival time, dose: 200.0 mg/kg/injection, schedule: Q01DX005 (ip), vehicle: water): 101 % of control

COc1ccc2c(c1)C/C(=N\O)C2=O
T/C [9]: 93 % of control | T/C (endpoint: mean survival time, dose: 25.0 mg/kg/injection, schedule: Q04DX003 (ip), vehicle: saline with Tween-80): 95 % of control | T/C [10]: 97 % of control | T/C (endpoint: mean survival time, dose: 50.0 mg/kg/injection, schedule: Q04DX003 (ip), vehicle: saline with Tween-80): 93 % of control | T/C [11]: 91 % of control

Cn1c2ccccc2c2ccc3c(c21)C(=O)C=CC3=O
T/C (endpoint: median survival time, dose: 12.5 mg/kg/injection, schedule: Q01DX009 (ip), vehicle: Klucel (hydroxypropylcellulose) (HPC)): 100 % of control | T/C (endpoint: median survival time, dose: 25.0 mg/kg/injection, schedule: Q01DX009 (ip), vehicle: Klucel (hydroxypropylcellulose) (HPC)): 102 % of control | T/C (endpoint: median survival time, dose: 50.0 mg/kg/injection, schedule: Q01DX009 (ip), vehicle: Klucel (hydroxypropylcellulose) (HPC)): 109 % of control

Nc1ccc(S(=O)(=O)c2ccc(NCC(=O)O)cc2)cc1
T/C (endpoint: mean survival time, dose: 100.0 mg/kg/injection, schedule: Q04DX003 (ip), vehicle: saline): 100 % of control | T/C (endpoint: mean survival time, dose: 200.0 mg/kg/injection, schedule: Q04DX003 (ip), vehicle: saline): 100 % of control | T/C (endpoint: mean survival time, dose: 400.0 mg/kg/injection, schedule: Q04DX003 (ip), vehicle: saline): 100 % of control

OC1CCCCC(O)CCCC1 (centres undefined)
T/C [3]: 110 % of control | T/C [6]: 95 % of control | T/C [4]: 116 % of control | T/C [7]: 98 % of control | T/C [5]: 118 % of control | T/C [8]: 101 % of control

Nc1cc2[nH]c(=O)c3ccccc3c2cc1Br
T/C (endpoint: mean survival time, dose: 100.0 mg/kg/injection, schedule: Q01DX001 (ip), vehicle: carboxymethylcellulose (CMC)): 103 % of control | T/C (endpoint: mean survival time, dose: 200.0 mg/kg/injection, schedule: Q01DX001 (ip), vehicle: carboxymethylcellulose (CMC)): 97 % of control | T/C (endpoint: mean survival time, dose: 400.0 mg/kg/injection, schedule: Q01DX001 (ip), vehicle: carboxymethylcellulose (CMC)): 100 % of control

CC1(C)CC2(C)OC2C2(C1)N=NC(=Nc1ccccc1)O2 (centres undefined)
T/C [1]: 110 % of control | T/C [2]: 102 % of control

O=C(O)CCCCCCCCC1CC(F)(F)C(F)(F)S1 (centres undefined)
T/C [12]: 98 % of control | T/C [13]: 92 % of control | T/C [14]: 95 % of control

CCCCCCCCCCOC(=O)Nc1cccc(O)c1
T/C [11]: 95 % of control | T/C (endpoint: mean survival time, dose: 200.0 mg/kg/injection, schedule: Q04DX003 (ip), vehicle: saline with Tween-80): 95 % of control | T/C (endpoint: mean survival time, dose: 400.0 mg/kg/injection, schedule: Q04DX003 (ip), vehicle: saline with Tween-80): 98 % of control

Cc1cccc(C(=O)C(=O)c2cccc(C)c2C)c1C
T/C (endpoint: mean survival time, dose: 75.0 mg/kg/injection, schedule: Q01DX001 (ip), vehicle: other): 93 % of control | T/C (endpoint: mean survival time, dose: 150.0 mg/kg/injection, schedule: Q01DX001 (ip), vehicle: other): 93 % of control | T/C (endpoint: mean survival time, dose: 300.0 mg/kg/injection, schedule: Q01DX001 (ip), vehicle: other): 100 % of control

NC1=NC2OC(CO)C(O)C2O1 (centres undefined)
T/C [12]: 105 % of control | T/C [13]: 100 % of control | T/C [14]: 102 % of control | T/C (endpoint: median survival time, dose: 100.0 mg/kg/injection, schedule: Q04DX003 (ip), vehicle: saline with Tween-80): 100 % of control | T/C (endpoint: median survival time, dose: 200.0 mg/kg/injection, schedule: Q04DX003 (ip), vehicle: saline with Tween-80): 100 % of control | T/C (endpoint: median survival time, dose: 400.0 mg/kg/injection, schedule: Q04DX003 (ip), vehicle: saline with Tween-80): 100 % of control

COc1cc(OC)c(NC(=O)OCCON2CCNC2=O)cc1Cl
T/C [10]: 90 % of control | T/C [12]: 90 % of control | T/C [13]: 97 % of control
